Results reported in US20060199241A1, “Electrochemically and optically monitoring cleaving enzyme activity” (priority 2005, published 2006).

Test system: APO-GDH
Test: Homogeneous optical and electrochemical assay with GDH and PQQ
Format: biochemical
Settings: APO-GDH 1 μM, 2 mM CaCl2, 40 mM glucose, 50 μM PMS, redox indicator (DCIP, resazurin or thionine)
Method: Homogeneous Optical and Electrochemical Assay for DNA with GDH and PQQ (See FIG. 8) The PQQ solutions (variable concentrations) included APO-GDH (1 μM), 2 mM CaCl2, and 40 mM Glucose. 50 μM PMS and a redox indicator (0.1-0.2 mM DCIP, 0.025 mM resazurin, or 0.05 mM thionine) were also added. PQQ at 0.1 nM was detectable.

PQQ concentration detectable (GDH enzyme activity): 0.1 nM
SMILES: O=C(O)c1cc(C(=O)O)c2c(n1)C(=O)C(=O)c1cc(C(=O)O)[nH]c1-2 [PQQ, pyrroloquinoline quinone]
